Laboratory results published in patent publication US20090041719A1, “Method for screening therapeutic agent for glomerular disorder” (priority 2006, published 2009).
Values joined by “and” are separate entries in the source; they are usually repeats but may differ in a detail not shown here. Equal values may be shown once.

Assays:
[1] = system: rat unilateral ureteral obstruction release model; experiment: Rat unilateral ureteral obstruction release model: glomerular and tubulointerstitial lesions, Asc-1+ cells; type: in vivo, SD rat; settings: for Improvement of glomerular lesion: Yes = lesioned glomeruli per 50 glomeruli reduced to less than or equal to half the control average; for Improvement of tubulointerstitial lesion: Yes = reduced to less than or equal to half the control average;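 for Tubulointerstitial lesion: atrophy of tubules associated with dilatation of tubules (score): ± very light + light ++ moderate +++ high change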;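 for Tubulointerstitial lesion: fibrosis of interstitial tissue (score): ± very light + light ++ moderate +++ high change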;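 for Tubulointerstitial lesion: thickness of basement membrane (score): ± very light + light ++ moderate +++ high change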
Text: An experimental model was produced in accordance with the method devised and established by Ishibashi (Michio Ishibasi et al., Japanese Journal of Nephrology 42: 248, 2000), using a 8 to 9-week-old male SD rat weighing about 280 g. […] On day 14 after obstruction, the obstruction was released, and the urinary tract was reconstructed using a cuff. That is, 14 days later, the ligated ureteral obstruction part was partially removed, and a 25 gauge polyethylene tube (made by Nippon Sherwood) as a cuff was inserted from the lower normal ureteral stump and placed in the lumen. Next, the cuff was placed also in the expanded upper ureter, and both parts were ligated for fixation with a 7-0 nylon suture to reconstruct the urinary tract. At the same time, the right kidney was removed. The weight was measured after obstruction release, and the blood was collected on days 2, 5, and 7 after release for serum creatinine determination. On day 7, the rat was sacrificed under anesthesia and the left obstruction release kidney was removed. The weight of the removed kidney was measured, and the kidney pathomorphological examination was performed.
The biological effects of the test compound were studied in vivo using the model obtained in the above procedure 1). The test compound in the form of bulk powder was dissolved in sterilized physiologic saline together with gum arabic, where the concentration of the gum arabic was adjusted to 5% and the concentration of the test compound was adjusted to 30 mg/ml. The amount of 30 mg/kg was subcutaneously administered every day. Daily administration was continued for 21 days during 14 days of obstruction and 7 days after obstruction release. For controlled comparison, the solvent of 5% gum arabic was administered alone.
On day 22 from the administration of the test compound, the rat was sacrificed under anesthesia, and the left obstruction release kidney was removed and neutral formalin fixed. The fixed renal tissue embedded in paraffin was sliced into 4-micrometer-thick pieces for examination.
The tissue section was observed under a microscope in order to count the number of glomeruli and the number of glomeruli having a lesion (expansion of a tubular pole associated with swollen Bowman's capsule epithelial cells or hypertrophy of a Bowman's capsule basal membrane) in the field of view, and the number of glomeruli having the lesion (referred to as “lesioned glomerulus”) per 50 glomeruli was calculated.
As for the effectiveness to improve of glomerular lesions, when the number of lesioned glomeruli per 50 glomeruli was reduced to less than or equal to half the average number of those of the control group, it was determined as improved.
An affinity-purified anti-rat Asc-1 polyclonal antibody (rabbit) was prepared as follows: that is, in order to prepare an anti-Asc-1 peptide polyclonal antibody (rabbit), an oligopeptide (PSPLPITDKPLKTQC (SEQ. ID NO: 4)) corresponding to amino acid residues of 517-530 of Asc-1 was synthesized (see J Biol Chem (2000); 275: 9690-9698), keyhole limpet hemocyanine was bound to the C-terminal cysteine as an adjuvant, and […] was immunized therewith. The serum was collected on days 7 and 14 from the immunization. The serum was concentrated by means of an adsorption-dissociation operation using an affinity column to which an oligopeptide corresponding to amino acid residues of 517-530 of Asc-1 was bound in order to obtain an affinity-purified antibody having a protein content of 0.5 mg/ml. As for immunopathological examination, paraffin rat […] diluted with PBS to the optimal concentration was used.
The immune tissue staining was performed based on the protocol of Ventana HX system bench mark (Ventana Japan K.K., Tokyo) including the automated immunostaining device manufactured by Ventana Japan K.K. After deparaffinization, the tissue section was heat-treated at 100° C. for 1 hour. […]

[2] = system: glomerular lesions; renal tubulointerstitial lesions; settings: International Publication WO 2004/024185 and 01/72730 pamphlets; cited from earlier work
[3] = system: FRP-1/CD98/4F2hc; experiment: FACScan of FRP-1/CD98/4F2hc expression on macrophage fraction of LPS-stimulated human PBMC (monoclonal antibodies 4-5-1, 6-1-3, HBJ-127); type: cell-based
[4] = system: 4F2hc; experiment: HAT heavy chain 4F2hc on large-monocyte fraction of LPS-stimulated human PBMC, peak value by FACScan (polyclonal antibody); type: cell-based
Experimental: (§1) In the same manner as in 1) to 5) of Experimental Example 1, to human peripheral blood mononuclear cells, the test compound (6-2) (final concentration: 10 nM) or the test compound (7-3) (final concentration: 100 nM) was added at the same time when LPS (final concentration: 80 μg/ml) was added, followed by 6-day culture. Further, in the same manner as above, using rabbit anti-human 4F2hc polyclonal antibodies (see Biol Pharm Bull 30:415-422, 2007) as a primary antibody, the peak value of HAT expressed on the fraction of large-macrophages (larger than monocyte macrophages) in human PBMC was measured by FACScan using a commercially available cell fix/cell membrane infiltration kit (trade name: BD Cytofix/Cytoperm™ Kit, catalog No. 554714, BD Biosciences).
(§2) As a control, the one with no test-compound addition was used, and as a rabbit anti-human rBAT (related to b^0,+-type amino acid transporter) polyclonal antibody, the one obtained by coupling a synthesized peptide composed of an amino-terminal of human rBAT (MAEDKSKRDSIEMSMKGC (SEQ ID NO: 2)) and a carboxyl-terminal of mouse b^0,+AT (BAT1) (CHLQMLEWPEKDPE (SEQ ID NO: 3)) to a carrier KLH (keyhole-limpet hemocyanin), and immunizing a rabbit with it.

[5] = system: rBAT; experiment: HAT heavy chain rBAT on large-monocyte fraction of LPS-stimulated human PBMC, peak value by FACScan; type: cell-based; settings: human PBMC + LPS 80 μg/ml, 6-day culture; test compound 100 nM; solvent control 37
Experimental: as §1, §2

[6] = system: 4F2hc; experiment: 4F2hc on large-cell fraction of LPS-stimulated THP-1, peak value by FACScan; type: cell-based, human
Experimental: The same procedures as in Experimental Example 2 were taken except the following conditions: human leukemia culture cell line THP-1 was used instead of the human peripheral blood mononuclear cells; the final addition concentration of the test compound (6-2) was set to 100 nM, and the final addition concentration of the test compound (7-3) was set to 1000 nM; and fetal bovine serum was used instead of the human AB serum. The peak value of HAT expressed on the fraction of large-cells in human leukemia culture cell strain THP-1, compared with those not stimulated with LPS, was measured. As a control, the one with no test-compound addition was used, and the peak value of HAT was measured by FACScan using a commercially available cell fix/cell membrane infiltration kit (trade name: BD Cytofix/Cytopem™ Kit, catalog No. 554714, BD Bioscience).

[7] = group average ± standard deviation
[8] = individual animal, 30 mg/kg s.c. daily for 21 days, 30 mg/kg
[9] = individual animal, points: ± 0.5, + 1, ++ 2, +++ 3
[10] = individual animal, sum of the three scores
[11] = human PBMC + LPS 80 μg/ml, 6-day culture, test compound 100 nM

SMILES | Glomerular lesion: number of lesioned glomeruli per 50 glomeruli, expansion of tubular pole associated with swollen Bowman's capsule epithelial cells [1, 7] [per 50 glomeruli] | Glomerular lesion: number of lesioned glomeruli per 50 glomeruli, hypertrophy of Bowman's capsule basal membrane [1, 7] [per 50 glomeruli] | Number of Asc-1+ cells per 50 glomeruli [1, 7] [per 50 glomeruli] | Tubulointerstitial lesion: atrophy of tubules associated with dilatation of tubules (score) [1, 7] | Tubulointerstitial lesion: fibrosis of interstitial tissue (score) [1, 7] | Tubulointerstitial lesion: thickness of basement membrane (score) [1, 7] | Tubulointerstitial lesion: total score [1, 7] | Glomerular lesion: number of lesioned glomeruli per 50 glomeruli, expansion of tubular pole associated with swollen Bowman's capsule epithelial cells [1, 8] | Glomerular lesion: number of lesioned glomeruli per 50 glomeruli, hypertrophy of Bowman's capsule basal membrane [1, 8] | Number of Asc-1+ cells per 50 glomeruli [1, 8] | Improvement of glomerular lesion ([1]; individual animal) | Improvement of tubulointerstitial lesion ([1]; individual animal) | Tubulointerstitial lesion: atrophy of tubules associated with dilatation of tubules (score) [1, 9] | Tubulointerstitial lesion: fibrosis of interstitial tissue (score) [1, 9] | Tubulointerstitial lesion: thickness of basement membrane (score) [1, 9] | Tubulointerstitial lesion: total score [1, 10] | known action on renal tubulointerstitial lesions [2] | further results
C[C@@H](OC[C@@]1(Oc2ccc(F)cc2)CCC(=O)O1)c1ccc2ccccc2c1 [(3-2)] | 6 ± 3 | 6 ± 1 | 11.06 ± 3.51 | 2.6 ± 0.9 | 2.2 ± 0.4 | 2.2 ± 0.4 | 7.0 ± 1.2 | 10 per 50 glomeruli and 6 per 50 glomeruli (2×) and 5 per 50 glomeruli and 3 per 50 glomeruli | 6 per 50 glomeruli and 5 per 50 glomeruli (2×) and 8 per 50 glomeruli and 7 per 50 glomeruli | 9.48 per 50 glomeruli and 9.55 per 50 glomeruli and 14.91 per 50 glomeruli and 6.84 per 50 glomeruli and 14.52 per 50 glomeruli | Yes | No | 3 (4×) and 1 | 2 (4×) and 3 | 2 (4×) and 3 | 7 (2×) and 8 (2×) and 5 | – | known action on glomerular lesions [2]: selectively inhibit the glomerular lesions
C[C@@H](OC[C@]1(Oc2ccc(F)cc2)CCC(=O)O1)c1ccc2ccccc2c1 [(4-2)] | 11 ± 6 | 18 ± 9 | 4.03 ± 3.06 | 1.0 ± 0 | 1.5 ± 0.6 | 0.9 ± 0.3 | 3.4 ± 0.5 | 16 per 50 glomeruli (2×) and 6 per 50 glomeruli and 7 per 50 glomeruli | 29 per 50 glomeruli and 9 per 50 glomeruli and 20 per 50 glomeruli and 13 per 50 glomeruli | 1.81 per 50 glomeruli and 7.39 per 50 glomeruli and 5.83 per 50 glomeruli and 1.10 per 50 glomeruli | No (2×) and Yes (2×) | No and Yes (3×) | 1 | 2 (2×) and 1 (2×) | 1 (3×) and 0.5 | 4.0 and 3.5 and 3.0 (2×) | selectively inhibit the renal tubulointerstitial lesions | –
O=C1OC(Cl)(C(=O)OCc2ccccc2)c2ccccc21 (stereo not shown) [Compound (7-3)] | 5 ± 3 | 14 ± 5 | 0.90 ± 0.47 | 0.50 ± 0.4 | 0.5 ± 0 | 0.4 ± 0.3 | 1.4 ± 0.6 | 9 per 50 glomeruli and 1 per 50 glomeruli and 6 per 50 glomeruli and 4 per 50 glomeruli | 20 per 50 glomeruli and 10 per 50 glomeruli and 16 per 50 glomeruli and 11 per 50 glomeruli | 1.35 per 50 glomeruli and 0.47 per 50 glomeruli and 1.27 per 50 glomeruli and 0.53 per 50 glomeruli | No (2×) and Yes (2×) | – | 0.5 (2×) and 0 and 1 | 0.5 | 0.5 (3×) and 0 | 1.5 (2×) and 0.5 and 2 | selectively inhibit the renal tubulointerstitial lesions | Migration of FRP-1/CD98/4F2hc expression of macrophage fraction by FACScan (migration rate %), monoclonal antibody 4-5-1 (FRP-1) [3, 11]: 2.6%; Migration of FRP-1/CD98/4F2hc expression of macrophage fraction by FACScan (migration rate %), monoclonal antibody 6-1-3 (FRP-1) [3, 11]: 2.0%; Migration of FRP-1/CD98/4F2hc expression of macrophage fraction by FACScan (migration rate %), monoclonal antibody HBJ-127 (CD98) [3, 11]: 5.4%; expression of FRP-1/CD98/4F2hc on macrophage fraction of human PBMC (in words) ([3]; stimulated and cultured with LPS, summary of Table 1): did not increase the expression; Change in HAT expressed on large-monocyte fraction of human PBMC (peak value by FACScan), 4F2hc ([4]; human PBMC + LPS 80 μg/ml, 6-day culture, test compound 100 nM, solvent control 23): 20; amount of 4F2hc in the heavy chain of HAT (in words) ([4]; human PBMC + LPS, summary of Table 2): did not show any effects; Change in HAT expressed on large-monocyte fraction of human PBMC (peak value by FACScan), rBAT [5]: 38; Change in HAT expressed on large-cell fraction of THP-1 (peak value by FACScan), 4F2hc ([6]; THP-1 + LPS 80 μg/ml, fetal bovine serum, test compound 1000 nM, solvent control 12): 11; amount of 4F2hc in the heavy chain of HAT (in words) ([6]; THP-1 + LPS, summary of Table 3): did not make any change; amelioration / reduction of tubulointerstitial lesions, rats of the group ([1]; control group: one rat out of four): all of four rats; Asc-1 positive cells in the glomeruli (in words) ([1]; versus control group): only a small number
